Source: paper PMC7505474, “Toll-like receptor 4-mediated inflammation triggered by extracellular IFI16 is enhanced by lipopolysaccharide binding” (PLoS Pathogens, 2020)
“Also recorded” adds a separate entry of the source. Read-outs that look alike come from different tables or passages of the source.

Assays:
[1] = target: T1, IFI16 (Homo sapiens, UniProt Q16666); assay: Saturation binding ELISA, full-length IFI16 on immobilized LPS variants / lipid A
T1 construct: obtained with the full-length recombinant IFI16 protein; made in house
T1 sequence (Q16666 1-729 isoform Q16666-2): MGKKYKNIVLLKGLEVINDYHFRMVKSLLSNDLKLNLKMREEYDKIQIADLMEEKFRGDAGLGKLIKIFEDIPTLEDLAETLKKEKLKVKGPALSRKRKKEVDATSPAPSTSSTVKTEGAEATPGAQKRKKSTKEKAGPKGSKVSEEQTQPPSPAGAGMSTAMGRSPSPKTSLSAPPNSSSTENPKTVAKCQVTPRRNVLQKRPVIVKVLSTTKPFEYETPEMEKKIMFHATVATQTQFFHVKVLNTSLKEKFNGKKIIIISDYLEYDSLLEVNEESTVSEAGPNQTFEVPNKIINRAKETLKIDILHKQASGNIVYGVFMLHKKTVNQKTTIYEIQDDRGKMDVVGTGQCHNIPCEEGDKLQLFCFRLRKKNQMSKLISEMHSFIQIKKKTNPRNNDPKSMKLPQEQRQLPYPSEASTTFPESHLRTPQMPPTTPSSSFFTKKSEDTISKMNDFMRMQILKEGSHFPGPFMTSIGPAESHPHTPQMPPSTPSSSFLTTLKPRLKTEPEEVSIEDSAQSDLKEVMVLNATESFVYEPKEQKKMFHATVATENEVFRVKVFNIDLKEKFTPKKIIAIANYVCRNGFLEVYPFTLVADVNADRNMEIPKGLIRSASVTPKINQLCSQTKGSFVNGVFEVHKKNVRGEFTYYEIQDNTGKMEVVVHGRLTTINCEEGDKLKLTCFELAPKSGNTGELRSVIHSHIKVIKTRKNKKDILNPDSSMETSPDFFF
Protocol: (§1) For saturation binding experiments, microtiter plates (Nunc-Immuno MaxiSorp, Thermo Fischer Scientific) were coated with 2 μg/ml of recombinant IFI16 or 10 μg/ml of BSA or GST in 1X PBS O/N at 4°C. After a washing step with 1X PBS and 0.25% Tween 20 (v/v, Sigma-Aldrich) and blocking step with 1X PBS with 3% BSA and 0.05% Tween 20 for 1 h, increasing concentrations of biotin-labeled LPS-EB, preincubated with 10 μg/ml of polymyxin B (PMB) when specified, were added to the wells and incubated for 1 h at room temperature (RT). Bound proteins were then detected using HRP-conjugated streptavidin. TMB solution (Thermo Fischer Scientific) was used for color development, and OD was measured at 450 nm. Alternatively, microtiter plates were coated with 10 μg/ml of LPS-EB, LPS-PG, LPS-RS, LPS-F583, MPLA, DPLA, or detoxLPS in 1X PBS for 24 h at RT. After washing and blocking for 2 h, increasing concentrations of IFI16, PYRIN, HINA, or HINB were added to the wells, preincubated with 10 μg/ml of PMB when specified, for 2 h. Anti-IFI16 antibodies against the N- or the C-terminus of the protein and HRP-labeled anti-rabbit IgG were then added as primary and secondary antibodies, respectively. The binding was detected as described above.
(§2) For competitive ELISA, microtiter plates were coated with 1 μg/ml LPS-EB in 1X PBS O/N at RT. Successively, a constant amount of 2 μg/ml IFI16 was added to the wells in the presence of increasing concentration of LPS-EB, MPLA or detoxLPS. After incubation for 4 h at RT under gentle agitation, plates were incubated with an anti-IFI16 N-terminal primary antibody and an HRP-conjugated anti-rabbit IgG secondary antibody. The binding was detected as described above. To determine KD constants, saturation binding experiments were performed, and data were fitted to the Langmuir isotherm equation, which describes the equilibrium binding of the ligands. Data are reported as sigmoid concentration-response curves plotted against log concentrations.

[2] = target: T2, PYRIN (Homo sapiens, UniProt Q16666); assay: Saturation binding ELISA, PYRIN domain on immobilized LPS variants / lipid A
T2 construct: the N-terminal portion containing the pyrin domain (PYRIN); made in house; host or cells: bacteria (pET30a vector)
T2 sequence (Q16666 1-88 limits assumed): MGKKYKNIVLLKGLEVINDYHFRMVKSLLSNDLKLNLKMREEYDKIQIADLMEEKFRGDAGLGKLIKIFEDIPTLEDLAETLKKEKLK
Protocol: as §1, §2

[3] = target: T3, HINA (Homo sapiens, UniProt Q16666); assay: Saturation binding ELISA, HINA domain on immobilized LPS variants / lipid A
T3 construct: each of the 200 amino acid-long HIN domains (namely HINA or HINB); made in house; host or cells: bacteria (pET30a vector)
T3 sequence (Q16666 189-389 limits assumed): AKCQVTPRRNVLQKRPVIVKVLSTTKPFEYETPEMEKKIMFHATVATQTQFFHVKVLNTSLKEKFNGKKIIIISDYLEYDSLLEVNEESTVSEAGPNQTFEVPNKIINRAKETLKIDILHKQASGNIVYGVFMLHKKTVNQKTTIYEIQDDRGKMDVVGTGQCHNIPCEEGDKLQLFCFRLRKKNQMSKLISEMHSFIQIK
Protocol: as §1, §2

[4] = target: T4, HINB (Homo sapiens, UniProt Q16666); assay: Saturation binding ELISA, HINB domain on immobilized LPS variants / lipid A
T4 construct: each of the 200 amino acid-long HIN domains (namely HINA or HINB); made in house; host or cells: bacteria (pET30a vector)
T4 sequence (Q16666 562-761 limits assumed): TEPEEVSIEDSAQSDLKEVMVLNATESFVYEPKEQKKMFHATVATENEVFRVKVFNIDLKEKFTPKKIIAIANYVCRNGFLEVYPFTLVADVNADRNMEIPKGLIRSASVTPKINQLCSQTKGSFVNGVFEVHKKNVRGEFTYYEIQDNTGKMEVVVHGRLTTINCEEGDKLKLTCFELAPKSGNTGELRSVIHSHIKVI
Protocol: as §1, §2

[5] = target: T1, IFI16; assay: Competition ELISA for IFI16 binding to immobilized LPS-EB; details: 1 μg/ml LPS-EB coated; 2 μg/ml IFI16; competitor 5 to 25 μg/ml
Protocol: as §2

[6] = target: T1, IFI16; assay: SPR, LPS-EB over CM5 IFI16-coated chip; assay type: binding; details: LPS-EB 3.125–100 nM over immobilized IFI16
Protocol: Recombinant IFI16 was covalently immobilized onto the surface of sensor CM5 chips via amine coupling as done for TLR4 and TLR4/MD2 complex. IFI16 was diluted to a concentration of 25 μg/ml in 10 mM sodium acetate at pH 4.0. The target capture level of IFI16 was of 1,926.6 response units (RUs). Increasing concentrations of LPS-EB, diluted in HBS-EP+ buffer, were flowed over the CM5 sensor chip coated with IFI16 at a flow rate of 30 μl/min at 25°C with an association time of 180 s and a dissociation phase of 600 s. A single regeneration step with 50 mM NaOH was performed following each analytic cycle. The KDs were evaluated using the BIAcore evaluation software (GE Healthcare) and the reliability of the kinetic constants calculated by assuming a 1:1 binding model supported by the quality assessment indicators values.

[7] = target: T5, TLR4/MD2 receptor (Homo sapiens, UniProt O00206+Q9Y6Y9); assay: SPR, analytes over immobilized TLR4/MD2; assay type: binding
T5 construct: purchased R&D Systems 3146-TM-050/CF
Protocol: The Biacore X100 (GE Healthcare) instrument was used for real-time binding interaction experiments. Recombinant TLR4 or TLR4/MD2 complex was covalently immobilized onto the surface of sensor CM5 (cat # BR100012, GE Healthcare) chips via amine coupling. TLR4 was diluted to a concentration of 10 μg/ml in 10 mM sodium acetate at pH 4.0, while TLR4/MD2 complex was diluted to a concentration of 20 μg/ml in the same buffer. Both proteins were injected on CM5 chips at a flow rate of 10 μl/min, upon activation of the carboxyl groups on the sensor surface with 7-min injection of a mixture of 0.2 M EDC and 0.05 M NHS. The remaining esters were blocked with 7-min injection of ethanolamine. Taking into account the ligands (TLR4 or TLR4/MD2) and analytes (IFI16, LPS-EB or IFI16/LPS-EB) molecular weights (MW) of 70 or 90 kDa, and 90, 10 or 100 kDa respectively, the appropriate ligand density (RL) on the chip was calculated according to the following equation: RL = (ligand MW/analyte MW) × Rmax × (1/Sm), where Rmax is the maximum binding signal and Sm corresponds to the binding stoichiometry. The target capture level of the TLR4 or TLR4/MD2 was of 596.0 or 1,223.9 response units (RUs), respectively. […] Increasing concentrations of endotoxin-free IFI16, LPS-EB or IFI16/LPS-EB complex were flowed over the CM5 sensor chip coated with TLR4 or TLR4/MD2 at a flow rate of 30 μl/min at 25°C with an association time of 120 s for IFI16 alone and the IFI16/LPS-EB complex, and 180 s for LPS-EB, and a dissociation phase of 180 s for IFI16 and IFI16/LPS-EB complex or 600 s for LPS-EB. A single regeneration step with 50 mM NaOH was performed following each analytic cycle. All the analytes tested were diluted in the HBS-EP+ buffer (GE Healthcare). […]

[8] = target: T1, IFI16; assay: Saturation binding ELISA, IFI16-coated plates challenged with biotin-LPS-EB
Protocol: as §1

[9] = 10 μg/ml immobilized LPS variant or lipid A; increasing full-length IFI16; ELISA 450 nm; read-out: Equilibrium dissociation constant (KD), IFI16
[10] = 10 μg/ml immobilized LPS variant or lipid A; increasing PYRIN domain; read-out: Equilibrium dissociation constant (KD), PYRIN
[11] = 10 μg/ml immobilized LPS variant or lipid A; increasing HINA domain; read-out: Equilibrium dissociation constant (KD), HINA
[12] = 10 μg/ml immobilized LPS variant or lipid A; increasing HINB domain; read-out: Equilibrium dissociation constant (KD), HINB

T5 sequence (O00206 24-631 limits assumed): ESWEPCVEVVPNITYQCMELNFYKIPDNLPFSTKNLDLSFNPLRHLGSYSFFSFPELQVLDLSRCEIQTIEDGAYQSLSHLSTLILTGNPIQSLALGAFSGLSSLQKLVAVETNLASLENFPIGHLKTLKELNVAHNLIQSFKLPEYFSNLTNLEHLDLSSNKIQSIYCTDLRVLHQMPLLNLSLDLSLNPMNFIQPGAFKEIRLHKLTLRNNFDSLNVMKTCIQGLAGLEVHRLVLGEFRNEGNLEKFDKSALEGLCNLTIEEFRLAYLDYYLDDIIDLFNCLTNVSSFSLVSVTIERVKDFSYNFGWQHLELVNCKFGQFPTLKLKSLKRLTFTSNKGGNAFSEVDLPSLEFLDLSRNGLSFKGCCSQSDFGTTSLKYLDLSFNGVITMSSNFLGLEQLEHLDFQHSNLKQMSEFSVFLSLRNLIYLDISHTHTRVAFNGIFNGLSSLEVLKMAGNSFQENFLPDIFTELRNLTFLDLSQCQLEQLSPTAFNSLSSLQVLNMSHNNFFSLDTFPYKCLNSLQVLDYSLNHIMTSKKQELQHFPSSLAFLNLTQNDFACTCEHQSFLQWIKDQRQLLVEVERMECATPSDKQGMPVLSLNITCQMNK
T5 sequence (Q9Y6Y9 17-160 limits assumed): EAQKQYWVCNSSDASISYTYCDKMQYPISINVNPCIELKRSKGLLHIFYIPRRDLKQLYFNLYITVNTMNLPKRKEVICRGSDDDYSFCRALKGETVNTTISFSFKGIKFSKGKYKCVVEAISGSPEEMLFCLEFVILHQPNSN

Compound | Kd [1, 9] [nM] | Kd [2, 10] [nM] | Kd [3, 11] [nM] | Kd [4, 12] [nM] | Competition for IFI16 binding to immobilized LPS-EB [5] | also measured
CCCCCCCCCCCCCC(=O)O[C@H](CCCCCCCCCCC)CC(=O)O[C@@H]1[C@@H](NC(=O)C[C@@H](CCCCCCCCCCC)OC(=O)CCCCCCCCCCC)[C@H](OC[C@H]2O[C@H](OP(=O)(O)O)[C@H](NC(=O)C[C@H](O)CCCCCCCCCCC)[C@@H](OC(=O)C[C@H](O)CCCCCCCCCCC)[C@@H]2O)O[C@H](CO)[C@H]1OP(=O)(O)O [DPLA, diphosphoryl lipid A from Escherichia coli F583] | – | – | – | – | – | Kd ([1]; read-out: Equilibrium dissociation constant (KD), IFI16; 10 μg/ml immobilized LPS variant or lipid A; increasing full-length IFI16; ELISA 450 nm): 0.9 nM; Kd ([2]; read-out: Equilibrium dissociation constant (KD), PYRIN; 10 μg/ml immobilized LPS variant or lipid A; increasing PYRIN domain): 47.5 nM; Kd ([3]; read-out: Equilibrium dissociation constant (KD), HINA; 10 μg/ml immobilized LPS variant or lipid A; increasing HINA domain): 67.7 nM; Kd ([4]; read-out: Equilibrium dissociation constant (KD), HINB; 10 μg/ml immobilized LPS variant or lipid A; increasing HINB domain): 2.8 nM
CCCCCCCCCCCCCC(=O)O[C@H](CCCCCCCCCCC)CC(=O)O[C@@H]1[C@@H](NC(=O)C[C@@H](CCCCCCCCCCC)OC(=O)CCCCCCCCCCC)[C@H](OC[C@H]2OC(O)[C@H](NC(=O)C[C@H](O)CCCCCCCCCCC)[C@@H](OC(=O)C[C@H](O)CCCCCCCCCCC)[C@@H]2O)O[C@H](CO)[C@H]1OP(=O)(O)O (some centres unmarked) [MPLA, monophosphoryl lipid A from Escherichia coli F583] | 1.2 | 47.2 | 94.1 | 2.7 | much stronger reduction in IFI16 binding to LPS | –
LPS from Escherichia coli F583 [LPS-F583] | 4.3 | – | – | – | – | –
LPS from Escherichia coli O111:B4 [LPS-EB] | 4.2 | 116 | 85.3 | 3.3 | reduced IFI16 binding to immobilized LPS in a concentration-dependent manner | kinetic association constant (Ka) [6]: 11300 M⁻¹ s⁻¹; kinetic dissociation constant (Kd) ([6]; rate constant): 0.00194 s⁻¹; dissociation rate constant (Kd) [7]: 1e-06 s⁻¹; Ka ([7]; association rate constant): 6840 M⁻¹ s⁻¹; dissociation rate constant (koff) ([7]; dissociation rate constant): 1e-06 s⁻¹; Kd ([7]; equilibrium dissociation constant, read-out: KD): 0.147 nM; Rmax ([7]; maximum response): 745.00 RU; Kd ([7]; text / Fig 8C legend, read-out: equilibrium dissociation constant (KD)): 0.15 nM
LPS from Porphyromonas gingivalis [LPS-PG] | 12 | 46.9 | 84 | 1.6 | – | –
LPS from Rhodobacter sphaeroides [LPS-RS] | 19.3 | – | – | – | – | –
biotin-labeled LPS from Escherichia coli O111:B4 [biotin-LPS-EB] | – | – | – | – | – | biotin-LPS-EB concentration reaching saturation of solid-phase IFI16 ([8]; 2 μg/ml IFI16 coated): 100,000 ng/ml
detoxified LPS from Escherichia coli O111:B4 [detoxLPS] | – | – | – | – | did not interfere | –
polymyxin B [PMB] | – | – | – | – | – | Effect of PMB pre-treatment of immobilized LPS / lipid A on IFI16 binding ([1]; 10 μg/ml PMB): completely abolished IFI16 binding; also recorded: no signal was detected; Effect of PMB pre-incubated with biotin-LPS-EB on IFI16/LPS binding ([8]; 10 μg/ml PMB, IFI16-coated wells): completely prevented IFI16 from binding to LPS
